Converted amounts (≈) assume the structure as drawn. Like-named read-outs stand apart in the source and are kept apart here.
Columns and labels:
physchem = assay type: physicochemical; conditions: aqueous with cosolvent or surfactant or cyclodextrin, thermodynamic from solid
Description: Excess amounts of Tecovirimat (bulk drug powder) was added to an aqueous solution comprising meglumine and cyclodextrin at different ratios relative to each other to form a suspension. The suspension was placed in a constant-temperature incubation shaker, and was shaken at a temperature of 25±1° C., 37±1° C. and 60±1° C. for 72 h. After reaching equilibrium, the suspension was filtered through a 0.45 μm hydrophilic filter membrane to obtain a filtrate. After the filtrate was properly diluted with an acetonitrile-water (50:50, v/v) solution, the absorbance was measured at 224 nm, and the solubility of Tecovirimat was calculated. The corresponding solubility curve was plotted by using the solubility of the drug as the ordinate, and using the concentration of the cyclodextrin and/or meglumine as the abscissa.

[1] = In vitro dissolution in water (ChP 2015, 0931 Method II, 100 rpm); assay type: physicochemical; conditions: within 60 min, 1000 ml water, FIG. 2
Description: Experimental method: 1000 ml water was used as dissolution medium, and according to the Dissolution Test (Pharmacopoeia of the People's Republic of China (2015 Edition), General Notices, 0931 Method II), the operation was carried out at a rotation rate of 100 rpm, and a solution (5 ml) was taken at 5, 10, 15, 30, 45, and 60 min, respectively, and was filtrated through a 0.45 μm microporous membrane, to obtain a test solution; and Tecovirimat (bulk drug powder, 5 mg) as a reference was accurately weighed, and placed in a 100 ml volumetric flask, and the medium for dissolution was added to a final volume of 100 ml, thereby obtaining a reference solution. By high performance liquid chromatography, the peak area of the test solution and the reference solution were measured at 224 nm. The dissolution amounts at different time points was calculated by an external standard method, and the cumulative dissolution curves were plotted.

[2] = cited from earlier work
[3] = cited from earlier work; remark: listed apart in the source

## O=C(NN1C(=O)[C@@H]2[C@@H]3C=C[C@@H]([C@H]4C[C@@H]34)[C@@H]2C1=O)c1ccc(C(F)(F)F)cc1 [Tecovirimat, 4-trifluoromethyl-N-(3,3a, 4,4a, 5,5a, 6,6a-octahydro-1,3-dioxo-4,6-ethenocycloprop [f]isoindol-2 (1H)-yl)-benzamide]
physchem; 25 °C, cyclodextrin 20% (w/v) to 40% (w/v) alone, 25° C., FIG. 1(A), read-out: solubility of Tecovirimat in water
  solubility: 5 to 15 mg/mL (≈ 13.3 to 39.9 mM)
physchem; 25 °C, meglumine 2% (w/v) to 10% (w/v) alone, 25° C., FIG. 1(B), read-out: solubility of Tecovirimat in water
  solubility: 2 to 7 mg/mL (≈ 5.31 to 18.6 mM)
physchem; 25 °C, meglumine 5% (w/v) plus cyclodextrin 20% (w/v) to 40% (w/v), 25° C., FIG. 1(C), read-out: solubility of Tecovirimat in water
  solubility: 20 to 80 mg/mL
physchem; 37 °C, cyclodextrin 20% (w/v) to 40% (w/v) alone, 37° C., FIG. 1(A), read-out: solubility of Tecovirimat in water
  solubility: 5 to 18 mg/mL (≈ 13.3 to 47.8 mM)
physchem; 37 °C, meglumine 2% (w/v) to 10% (w/v) alone, 37° C., FIG. 1(B), read-out: solubility of Tecovirimat in water
  solubility: 2 to 9 mg/mL (≈ 5.31 to 23.9 mM)
physchem; 37 °C, meglumine 5% (w/v) plus cyclodextrin 20% (w/v) to 40% (w/v), 37° C., FIG. 1(C), read-out: solubility of Tecovirimat in water
  solubility: 30 to 100 mg/mL
physchem; 60 °C, cyclodextrin 20% (w/v) to 40% (w/v) alone, 60° C., FIG. 1(A), read-out: solubility of Tecovirimat in water
  solubility: 5 to 20 mg/mL (≈ 13.3 to 53.1 mM)
physchem; 60 °C, meglumine 2% (w/v) to 10% (w/v) alone, 60° C., FIG. 1(B), read-out: solubility of Tecovirimat in water
  solubility: 2 to 10 mg/mL (≈ 5.31 to 26.6 mM)
physchem; 60 °C, meglumine 5% (w/v) plus cyclodextrin 20% (w/v) to 40% (w/v), 60° C., FIG. 1(C), read-out: solubility of Tecovirimat in water
  solubility: 50 to 150 mg/mL
physchem; ternary solubilizing composition: Tecovirimat, cyclodextrin, additive (e.g. meglumine), read-out: maximal solubility
  solubility: ≤ 152 mg/mL
[1]
  dissolution: < 5%
[2]
  water solubility: less than 0.003 mg/ml
[3]; 20%-40% (w/v) hydroxypropyl-β-cyclodextrin (HP-β-CD), 37° C.
  solubility: 1.5 to 11 mg/mL
[3]; 40% (w/v) HP-β-CD, 70° C.
  maximal solubility: 21.23 mg/mL
[3]; HP-β-CD plus PEG400 or Tween 80
  effect of cosolvent (PEG400) or nonionic surfactant (Tween 80) on solubility in HP-β-CD: cannot further improve the solubility

From US11318115B2, “Oral pharmaceutical composition of Tecovirimat and preparation method thereof” (priority 2016, dated 2022)
